One series addresses T1, FOXO4 (Homo sapiens, UniProt P98177).
T1 construct: performed against the FOXO isoforms expressed in K562 cells; endogenous in cells; host or cells: K562
Kind of series: Cellular Thermal Shift Assay (CETSA) in K562 cells, FOXO4. In kind it is binding. The conditions noted are these: 1 μM. The protocol:
K562 cells (ATCC) were maintained in appropriate volume of RPMI medium supplemented with 10% fetal bovine serum (Serum Plus—II, Sigma MO, USA), 100 units/mL penicillin and 100 […] (Corning, VA, USA). Short-term passages (<15) were used for all experiments. For CETSA, K562 cell were freshly seeded the day before the experiment. The day of experiment, equal numbers of cells were counted by Moxi Mini automated cell counter (Orflo) and 0.6×10^6 cells per data point were seeded in T-25 cell culture flasks (VWR, PA, USA) in appropriate volume of culture medium. […] The supernatants were transferred to new microcentrifuge tubes and analyzed by SDS-PAGE followed by immunoblotting analysis. […] Immunoblotting results were subjected to densitometric analysis (Image J) and melting temperatures of FOXO1, FOXO3 and FOXO4 were determined by Prism 7 (GraphPad) using nonlinear least-squares regression fit to Y=100/(1+10^(Log IC50−X)*H), where H=Hill slope (variable). The viability of the cells was assessed in triplicate by trypan blue exclusion.
Whether the effect of AS1842856 was mediated by its interaction with FOXO1 was confirmed. […] AS1842856-FOXO binding was considered ‘positive’ if there was a significant change in the thermal profile of the protein between the presence and the absence of the drug assessed by western blot (FIG. 2, Panel A). […]

Another series relates to CD4+ T cells. In kind it is cell-based, human. The protocol:
CD69 and CD25 expression was measured by flow cytometry gating on CD3^+CD4^+ T cells using FITC-labeled antibodies for CD3 (11-0048-42, eBioscience), APC-conjugated CD25 antibodies (17-0259-42, eBioscience), PerCP-labeled antibodies for CD4 (300528, Biolegend), and CD69-V450 (560740, BD Horizon). Staining was performed for 30 min on ice in FACS buffer (PBS, 2% FBS), and samples were analyzed on a BD Biosciences LSRII flow cytometer. Shown are the percentages of positive cells relative to total CD3^+ CD4^+ T cells or median fluorescence intensity (MFI).
FIG. 6, Panel A, the cell surface CD69 and CD25 T cell activation markers were measured by FACS in CD4^+ T cells upon AS1842856 treatment for 24, 48 and 72 h. 10 μg/mLαCD3 and 1 μg/mL αCD28 was used as control. Data is shown as percentage of positive cells and as mean±SD of two biological replicates. FIG. 6, Panel B, depicts the same as in FIG. 6, Panel A, but measuring FOXO1 target genes (IL7R, KLRG1, CD62L) after 48 h of AS1842856 treatment (n=3). […]. Cells were allowed to rest for 6 days before 72 h reactivation was induced with PHA/IL-2 and 10 μg/mL αCD3 and 1 μg/mLαCD28. Data are mean±SEM of at least 3 individual donors. Data represent average SD of 9-13 independent experiments. […] Cell viability was assessed by Trypan Blue exclusion.

T1 sequence (P98177 whole entry, canonical isoform): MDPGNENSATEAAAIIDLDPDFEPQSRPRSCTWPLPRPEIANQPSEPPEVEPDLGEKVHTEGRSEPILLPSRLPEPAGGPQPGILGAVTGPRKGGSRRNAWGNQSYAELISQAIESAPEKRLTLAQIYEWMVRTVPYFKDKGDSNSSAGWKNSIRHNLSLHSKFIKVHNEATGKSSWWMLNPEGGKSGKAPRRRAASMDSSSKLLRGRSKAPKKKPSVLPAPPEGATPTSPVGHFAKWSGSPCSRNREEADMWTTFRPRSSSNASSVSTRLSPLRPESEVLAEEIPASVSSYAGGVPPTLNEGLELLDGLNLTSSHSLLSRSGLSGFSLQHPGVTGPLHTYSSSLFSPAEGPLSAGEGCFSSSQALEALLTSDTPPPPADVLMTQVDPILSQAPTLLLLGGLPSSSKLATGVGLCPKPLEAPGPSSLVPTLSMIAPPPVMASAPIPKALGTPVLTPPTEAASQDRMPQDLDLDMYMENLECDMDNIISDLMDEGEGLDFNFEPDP

`CCn1cc(C(=O)O)c(=O)c2c(N)c(F)c(NC3CCCCC3)cc21` [AS1842856, 5-amino-7-(cyclohexylamino)-1-ethyl-6-fluoro-4-oxo-1,4-dihydro-quinoline-3-carboxylic acid]: the “change in FOXO4 melting curve” value at FOXO4 is reported as “no changes”. In addition, the “generalized T cell activation (CD69 and CD25 expression)” value in the series with CD4+ T cells is “not observed”.

For the origin of these results see US20220193209A1, “COMPOSITIONS AND METHODS FOR REACTIVATING LATENT IMMUNODEFICIENCY VIRUS AND/OR TREATING IMMUNODEFICIENCY VIRUS INFECTION” (The J. David Gladstone institutes, a testamentary trust …, priority 2019, published 2022).
